Experimental data as given in article PMC2442655, “Structure-Activity Relationship and Substrate-Dependent Phenomena in Effects of Ginsenosides on Activities of Drug-Metabolizing P450 Enzymes” (PLoS ONE, 2008).
Where a name gives a salt, the structure may show the parent alone. Read-outs that look alike come from different tables or passages of the source.

What was measured:
CYP1A2 = target: T1, CYP1A2 (Homo sapiens, UniProt P05177); assay: Vivid CYP1A2 blue fluorescent assay; conditions: for IC50: IC50 CYP1A2 blue, cDNA-expressed enzyme, Vivid blue substrate 3 µM; for inhibition at 30 min, 50 µM: human
T1 sequence (P05177 1-516): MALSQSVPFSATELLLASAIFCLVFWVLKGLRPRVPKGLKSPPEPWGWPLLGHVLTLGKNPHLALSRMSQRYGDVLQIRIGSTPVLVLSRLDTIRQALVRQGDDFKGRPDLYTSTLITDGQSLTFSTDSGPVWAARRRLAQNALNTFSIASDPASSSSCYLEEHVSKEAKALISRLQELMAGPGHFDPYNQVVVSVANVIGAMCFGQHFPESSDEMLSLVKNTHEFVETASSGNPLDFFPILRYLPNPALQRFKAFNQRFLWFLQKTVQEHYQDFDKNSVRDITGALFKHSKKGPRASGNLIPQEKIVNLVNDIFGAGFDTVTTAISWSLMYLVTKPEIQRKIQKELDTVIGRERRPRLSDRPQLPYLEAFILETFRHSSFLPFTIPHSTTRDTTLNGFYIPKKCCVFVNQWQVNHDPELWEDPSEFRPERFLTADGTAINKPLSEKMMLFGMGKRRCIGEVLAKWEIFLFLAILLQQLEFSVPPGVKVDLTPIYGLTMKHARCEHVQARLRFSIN
Procedure: (§1) The inhibition of the catalytic activities of cDNA-expressed human P450 enzymes by ginsenosides was determined using Vivid® P450 screening kits (CYP1A2 blue, CYP2C9 red, CYP2C19 blue, CYP2D6 blue, CYP3A4 green and red) according to the manufacturer's instructions (Invitrogen Corporation; Carlsbad, CA, USA).
(§2) In brief, the assays were carried out in Costar® black-wall 96-well plates with ultra thin clear bottoms (Corning Inc, Corning, NY, USA) in a kinetic assay mode. Stock solutions (10 mM) of ginsenosides in methanol were prepared and diluted to various concentrations (2.5× 100, 50, 10, 5, 1 µM). For each well, 40 µL of solution of test compounds or vehicle was incubated with 50 µL pre-mixture (mixture of BACULOSOMES® reagent, regeneration system and reaction buffer) at 37°C for 20 min. The reaction was initiated by adding 10 µL of a mixture of substrate and NADP^+ per well with a respective concentration of Vivid® substrate (Table 1). The plate was read immediately for fluorescence changes every 0.5 min at 37°C for 30 min using a FlexStation II384 fluorometric plate reader (Molecular Devices, Sunnyvale, CA, USA) with respective excitation and emission wavelengths for each P450 enzyme (Table 1). The final methanol volume in the reaction was less than or equal to 1%.

CYP3A4 [1] = target: T2, CYP3A4 (Homo sapiens, UniProt P08684); assay: Vivid CYP3A4 green fluorescent assay; conditions: for inhibition at 30 min, 50 µM: human
Procedure: as §1, §2

CYP2D6 = CYP2D6 (Homo sapiens, UniProt P10635); assay: Vivid CYP2D6 blue fluorescent assay; conditions: for inhibition at 30 min, 50 µM: human
Procedure: as §1, §2

CYP2C19 = CYP2C19 (Homo sapiens, UniProt P33261); assay: Vivid CYP2C19 blue fluorescent assay; conditions: for inhibition at 30 min, 50 µM: human
Procedure: as §1, §2

CYP3A4 [2] = target: T2, CYP3A4; assay: Vivid CYP3A4 red fluorescent assay; conditions: for inhibition at 30 min, 50 µM: human, recombinant (cDNA-expressed) CYP3A4 BACULOSOMES, probe Vivid red substrate 3 µM
Procedure: as §1, §2

CYP2C9 = target: T3, CYP2C9 (Homo sapiens, UniProt P11712); assay: Vivid CYP2C9 red fluorescent assay; type: in vitro ADME; conditions: for inhibition at 30 min, 50 µM: human
T3 construct: purchased Invitrogen Corporation
Procedure: In brief, the assays were carried out in Costar® black-wall 96-well plates with ultra thin clear bottoms (Corning Inc, Corning, NY, USA) in a kinetic assay mode. […] For each well, 40 µL of solution of test compounds or vehicle was incubated with 50 µL pre-mixture (mixture of BACULOSOMES® reagent, regeneration system and reaction buffer) at 37°C for 20 min. […] The final methanol volume in the reaction was less than or equal to 1%.

[3] = recombinant (cDNA-expressed) CYP1A2 BACULOSOMES, probe Vivid blue substrate 3 µM
[4] = recombinant (cDNA-expressed) CYP2D6 BACULOSOMES, probe Vivid blue substrate 10 µM
[5] = recombinant (cDNA-expressed) CYP2C19 BACULOSOMES, probe Vivid blue substrate 10 µM
[6] = cDNA-expressed enzyme, Vivid red substrate 2 µM, maximum concentration 50 µM, read-out: IC50 CYP2C9 red
[7] = recombinant (cDNA-expressed) CYP2C9 BACULOSOMES, probe Vivid red substrate 2 µM
[8] = recombinant (cDNA-expressed) CYP3A4 BACULOSOMES, probe Vivid green substrate 2 µM

CYP2C19, sequence (P33261 whole entry): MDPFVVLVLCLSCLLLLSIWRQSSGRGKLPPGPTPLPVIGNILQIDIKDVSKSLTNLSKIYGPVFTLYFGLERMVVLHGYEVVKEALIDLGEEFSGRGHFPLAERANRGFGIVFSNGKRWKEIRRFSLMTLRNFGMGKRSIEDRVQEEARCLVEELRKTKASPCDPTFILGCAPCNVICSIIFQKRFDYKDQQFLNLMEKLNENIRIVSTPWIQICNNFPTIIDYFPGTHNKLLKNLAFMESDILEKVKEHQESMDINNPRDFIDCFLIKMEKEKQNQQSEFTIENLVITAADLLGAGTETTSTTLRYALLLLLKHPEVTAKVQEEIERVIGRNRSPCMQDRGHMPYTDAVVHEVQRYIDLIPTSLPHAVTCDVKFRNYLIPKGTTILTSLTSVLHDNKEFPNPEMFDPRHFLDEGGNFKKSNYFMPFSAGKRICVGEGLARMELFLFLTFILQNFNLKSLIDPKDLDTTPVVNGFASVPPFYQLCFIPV
T3 sequence (P11712 whole entry): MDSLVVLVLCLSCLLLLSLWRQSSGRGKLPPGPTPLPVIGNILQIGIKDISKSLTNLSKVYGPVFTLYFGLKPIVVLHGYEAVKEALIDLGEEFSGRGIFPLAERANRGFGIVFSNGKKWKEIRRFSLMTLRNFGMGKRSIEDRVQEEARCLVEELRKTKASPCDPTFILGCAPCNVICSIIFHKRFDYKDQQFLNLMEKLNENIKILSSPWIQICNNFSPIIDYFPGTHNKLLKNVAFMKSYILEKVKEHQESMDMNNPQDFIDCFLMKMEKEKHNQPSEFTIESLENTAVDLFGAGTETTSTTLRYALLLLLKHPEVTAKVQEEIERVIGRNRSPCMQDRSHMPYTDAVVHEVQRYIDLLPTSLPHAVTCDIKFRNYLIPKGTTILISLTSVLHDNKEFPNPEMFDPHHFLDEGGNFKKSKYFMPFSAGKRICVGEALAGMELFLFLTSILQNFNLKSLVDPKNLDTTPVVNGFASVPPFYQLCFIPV
CYP2D6, sequence (P10635 whole entry): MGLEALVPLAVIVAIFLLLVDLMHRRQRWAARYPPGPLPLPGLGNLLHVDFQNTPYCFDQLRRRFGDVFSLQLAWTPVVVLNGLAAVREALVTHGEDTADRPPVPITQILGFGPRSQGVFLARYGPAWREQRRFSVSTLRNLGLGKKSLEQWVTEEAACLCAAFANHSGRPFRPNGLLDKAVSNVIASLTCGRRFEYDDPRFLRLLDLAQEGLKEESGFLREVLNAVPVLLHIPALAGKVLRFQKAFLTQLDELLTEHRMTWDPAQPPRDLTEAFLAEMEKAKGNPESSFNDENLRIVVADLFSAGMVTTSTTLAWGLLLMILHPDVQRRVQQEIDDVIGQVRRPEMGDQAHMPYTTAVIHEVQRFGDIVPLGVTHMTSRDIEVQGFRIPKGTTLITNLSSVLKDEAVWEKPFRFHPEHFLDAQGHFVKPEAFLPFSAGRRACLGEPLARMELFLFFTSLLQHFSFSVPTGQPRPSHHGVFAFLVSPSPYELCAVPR
T2 sequence (P08684 whole entry): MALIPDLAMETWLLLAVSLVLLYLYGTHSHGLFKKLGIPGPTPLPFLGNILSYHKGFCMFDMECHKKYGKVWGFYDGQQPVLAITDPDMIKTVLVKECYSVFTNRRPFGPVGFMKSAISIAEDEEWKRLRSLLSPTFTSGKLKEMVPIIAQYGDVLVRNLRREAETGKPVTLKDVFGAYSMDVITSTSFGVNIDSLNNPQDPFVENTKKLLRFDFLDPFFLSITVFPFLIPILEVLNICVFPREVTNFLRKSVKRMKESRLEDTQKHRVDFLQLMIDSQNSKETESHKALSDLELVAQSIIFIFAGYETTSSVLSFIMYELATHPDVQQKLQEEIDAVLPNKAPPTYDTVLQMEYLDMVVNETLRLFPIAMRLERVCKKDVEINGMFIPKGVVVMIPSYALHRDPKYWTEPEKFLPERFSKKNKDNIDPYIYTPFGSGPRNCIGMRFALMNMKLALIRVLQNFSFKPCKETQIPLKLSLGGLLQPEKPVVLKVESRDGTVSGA

Compound	IC50 (CYP1A2)	inhibition at 30 min, 50 µM (CYP1A2; [3])	IC50 (CYP3A4 [1])	IC50 (CYP2D6)	inhibition at 30 min, 50 µM (CYP2D6; [4])	IC50 (CYP2C19)	inhibition at 30 min, 50 µM (CYP2C19; [5])	IC50 (CYP3A4 [2])	IC50 (CYP2C9; [6])	inhibition at 30 min, 50 µM (CYP2C9; [7])	inhibition at 30 min, 50 µM (CYP1A2)	inhibition at 30 min, 50 µM (CYP3A4 [1])	inhibition at 30 min, 50 µM (CYP2D6)	inhibition at 30 min, 50 µM (CYP2C19)	IC50 (CYP2C9)	inhibition at 30 min, 50 µM (CYP2C9)	inhibition at 30 min, 50 µM (CYP3A4 [1]; [8])	inhibition at 30 min, 50 µM (CYP3A4 [2])	IC50 (CYP2C19; read-out: IC50 CYP2C19 blue, cDNA-expressed enzyme, Vivid blue substrate 10 µM)	Effect on CYP3A4 catalytic activity, Vivid red assay (CYP3A4 [2]; red substrate)
CC(C)=CCC[C@](C)(O[C@@H]1O[C@H](CO[C@@H]2OC[C@@H](O)[C@H](O)[C@H]2O)[C@@H](O)[C@H](O)[C@H]1O)[C@H]1CC[C@]2(C)[C@@H]1[C@H](O)C[C@@H]1[C@@]3(C)CC[C@H](O[C@@H]4O[C@H](CO)[C@@H](O)[C@H](O)[C@H]4O[C@@H]4O[C@H](CO)[C@@H](O)[C@H](O)[C@H]4O)C(C)(C)[C@@H]3CC[C@]12C [Rb3]	> 100 µM	31.3%	99.7 µM	> 50 µM	49.4%	> 100 µM	5%	68.8 µM	> 50 µM	17.6%	–	–	–	–	–	–	–	–	–	–
CC(C)=CCC[C@](C)(O)[C@H]1CC[C@]2(C)[C@@H]1[C@H](O)C[C@@H]1[C@@]3(C)CC[C@H](O)C(C)(C)[C@@H]3[C@@H](O[C@@H]3O[C@H](CO)[C@@H](O)[C@H](O)[C@H]3O[C@@H]3O[C@@H](C)[C@H](O)[C@@H](O)[C@H]3O)C[C@]12C [Rg2]	> 100 µM	–	> 100 µM	> 50 µM	–	> 100 µM	–	47 µM	–	–	29.2%	19.4%	37.2%	14.8%	> 50 µM	20.1%	–	–	–	–
CC(C)=CCC[C@](C)(O[C@@H]1O[C@H](CO[C@@H]2O[C@H](CO)[C@@H](O)[C@H](O)[C@H]2O)[C@@H](O)[C@H](O)[C@H]1O)[C@H]1CC[C@]2(C)[C@@H]1[C@H](O)C[C@@H]1[C@@]3(C)CC[C@H](O[C@@H]4O[C@H](CO)[C@@H](O)[C@H](O)[C@H]4O[C@@H]4O[C@H](CO)[C@@H](O)[C@H](O)[C@H]4O)C(C)(C)[C@@H]3CC[C@]12C [Rb1]	37.8 µM	–	> 100 µM	> 50 µM	29.1%	> 100 µM	20.6%	> 100 µM	> 50 µM	25.2%	–	–	–	–	–	–	10.1%	4.4%	–	–
CC(C)=CCC[C@](C)(O)[C@H]1CC[C@]2(C)[C@@H]1[C@H](O)C[C@@H]1[C@@]3(C)CC[C@H](O)C(C)(C)[C@@H]3[C@@H](O)C[C@]12C [PPT, protopanaxatriol]	> 100 µM	13.1%	7.4 µM	> 50 µM	18.9%	46.9 µM	–	> 100 µM	31.6 µM	–	–	–	–	–	–	–	–	39.4%	–	–
Clc1ccc(COC(Cn2ccnc2)c2ccc(Cl)cc2Cl)c(Cl)c1 (stereo not shown) [miconazole nitrate salt, reference compound]	–	–	–	–	–	–	–	–	–	–	–	–	–	–	–	–	–	–	0.25 µM	–
CC(C)=CCC[C@@](C)(O)[C@H]1CC[C@]2(C)[C@@H]1[C@H](O)C[C@@H]1[C@@]3(C)CC[C@H](O)C(C)(C)[C@@H]3CC[C@]12C [20(R)-PPD]	> 100 µM	17.1%	10.3 µM	> 50 µM	34.9%	19.2 µM	–	58.6 µM	6.7 µM	–	–	–	–	–	–	–	–	–	–	–
CC(C)(O)CCC[C@@](C)(O)[C@H]1CC[C@]2(C)[C@@H]1[C@H](O)C[C@@H]1[C@@]3(C)CC[C@H](O)C(C)(C)[C@@H]3[C@@H](O)C[C@]12C [20(R)-25-OH-PPT]	> 100 µM	16.9%	27.2 µM	> 50 µM	10%	43.9 µM	–	–	8.5 µM	–	–	–	–	–	–	–	–	–	–	activated the catalytic activity of CYP3A4
CC(C)=CCC[C@](C)(O[C@@H]1O[C@H](CO)[C@@H](O)[C@H](O)[C@H]1O)[C@H]1CC[C@]2(C)[C@@H]1[C@H](O)C[C@@H]1[C@@]3(C)CC[C@H](O)C(C)(C)[C@@H]3[C@@H](O[C@@H]3O[C@H](CO)[C@@H](O)[C@H](O)[C@H]3O[C@@H]3O[C@@H](C)[C@H](O)[C@@H](O)[C@H]3O)C[C@]12C [Re]	> 100 µM	28.1%	> 100 µM	> 50 µM	44.2%	> 100 µM	8.8%	66.1 µM	> 50 µM	38%	–	–	–	–	–	–	4.3%	–	–	–
CC(C)=CCC[C@](C)(O[C@@H]1O[C@H](CO)[C@@H](O)[C@H](O)[C@H]1O)[C@H]1CC[C@]2(C)[C@@H]1[C@H](O)C[C@@H]1[C@@]3(C)CC[C@H](O)C(C)(C)[C@@H]3CC[C@]12C [C-K, ginsenoside Compound K]	23.8 µM	–	30.5 µM	> 50 µM	49.4%	45.9 µM	–	9.1 µM	9.1 µM	–	–	–	–	–	–	–	–	–	–	–
CC(C)=CCC[C@](C)(O)[C@H]1CC[C@]2(C)[C@@H]1[C@H](O)C[C@@H]1[C@@]3(C)CC[C@H](O[C@@H]4O[C@H](CO)[C@@H](O)[C@H](O)[C@H]4O[C@@H]4O[C@H](CO)[C@@H](O)[C@H](O)[C@H]4O)C(C)(C)[C@@H]3CC[C@]12C [Rg3]	32.4 µM	–	86.4 µM	9.3 µM	–	47 µM	–	25.2 µM	18.5 µM	–	–	–	–	–	–	–	–	–	–	–
CC(C)=CCC[C@](C)(O[C@@H]1O[C@H](CO)[C@@H](O)[C@H](O)[C@H]1O)[C@H]1CC[C@]2(C)[C@@H]1[C@H](O)C[C@@H]1[C@@]3(C)CC[C@H](O)C(C)(C)[C@@H]3[C@@H](O[C@@H]3O[C@H](CO)[C@@H](O)[C@H](O)[C@H]3O)C[C@]12C [Rg1]	> 100 µM	30.2%	> 100 µM	> 50 µM	17.7%	> 100 µM	11.7%	> 100 µM	> 50 µM	21.7%	–	–	–	–	–	–	8.1%	16.9%	–	–
